In data set [1] the test system is KB-3 human carcinoma cell line. The data set can be described thus: MTT colorimetric assay of KB-3 cell viability. In kind it is cell-based. As to conditions: for IC50: KB-3 cells, 96 h treatment, triplicate, read-out: IC50, inhibition of KB-3 cell survival assessed by MTT viability assay. How it is done: The human KB-3 carcinoma cell line was used to perform the MTT colorimetric assay of cell viability.(22-24) Cells were treated with increasing concentrations of compounds to assess their growth inhibitory properties. IC50 values (concentration of the drug required to reduce cell viability by 50%) ranged from 1 to >100 μM (Table 1).
Inhibition of cell proliferation was assessed by the MTT assay. This assay is based on the ability of a mitochondrial dehydrogenase enzyme from viable cells to cleave the tetrazolium rings of the pale yellow 3-(4,5-dimethylthiazol-2-yl)-2,5-diphenyltetrazolium bromide (MTT) and form a dark blue formazan crystal product which is largely impermeable to cell membranes, thus resulting in its accumulation within healthy cells.(22) Solubilization of the cells by the addition of solvent results in the liberation of the crystals which are solubilized. The level of the formazan product created is directly proportional to the number of living cells.(23,24)
All stock solutions of compounds were made at 10 mM in dimethyl sulfoxide (DMSO). DMSO and MTT were from Sigma Chemical Co. (St. Louis, Mo.). Cell culture reagents were obtained from Life Technologies (Carlsbad, Calif.). The KB-3 human carcinoma cell line was maintained in monolayer culture at 37° C. and 5% CO2 in Dulbecco's Modified Eagle's Medium, supplemented with 10% fetal bovine serum, 2 mM L-glutamine, 50 units/mL penicillin, and 50 μg/mL streptomycin.
KB-3 cells (2000/well) were plated in 96-well dishes, and after 24 h were treated with 0.1 nM-100 μM of the compound in question. […] After 96 h, cells were incubated with 50 μg MTT/well/0.2 mL for 4 h at 37° C., the media was removed, and the formazan crystals were dissolved in 0.15 mL of DMSO. Absorbance at 570 nm was measured with an ELx800™ Microplate Reader (Bio Tek Instruments, Inc., Winooski, Vt.). All treatments were performed in triplicate. Results are shown in FIGS. 1A-D as a percentage of control samples (mean±SD). IC50 is the concentration that reduced survival to 50% of the control (no drug).

The next data set concerns 60-cell line screening. The data set can be described thus: NCI Developmental Therapeutics 60-cell line screening, single dose. As to conditions: NCI 60-cell line screening. It is filed as cell-based.
Data set [2] concerns RPMI-8226 leukemia cell line. Description: NCI 60-cell line single dose assay, RPMI-8226. It is filed as cell-based.
Data set [3] has as its system PC-3 prostate cancer cell line. Description: NCI 60-cell line single dose assay, PC-3. It is filed as cell-based.
The next data set has as its system entire leukemia panel. Description: NCI 60-cell line single dose assay, leukemia panel. It is filed as cell-based.
The subject of data set [4] is NCI-H522 non-small cell lung cancer cell line. Description: NCI 60-cell line single dose assay, NCI-H522. In kind it is cell-based.
For data set [5], the system named is RPMI-8226 leukemia cell line. Description: NCI 5-dose testing, RPMI-8226. In kind it is cell-based. The conditions noted are these: 5-dose testing, read-out: LC50 (the source's name).
The test system of data set [6] is HOP-92 non-small cell lung cancer cell line. The data set can be described thus: NCI 5-dose testing, HOP-92. In kind it is cell-based. The conditions noted are these: 5-dose testing, read-out: LC50 (the source's name).
For data set [7] the following is noted: reported in the literature; cited from earlier work.
The subject of a further data set is L1210 cell line. The conditions noted are these: reported, cited from earlier work.

Values after ≈ are worked out from the molar mass of the structure shown. Values joined by “and” are separate entries in the source; they are usually repeats but may differ in a detail not shown here. Equal entries are not always repeated. Where two headings read alike, the source gives them in different places.

What is called IC50 is the concentration that inhibits the measured activity by half.

As to `C=C(C)[C@H]1CC=C(C)[C@@]2(O)[C@@H]1[C@H](c1ccccc1Br)O[C@@H]2C(=O)OC` [Compound 5a.i], the IC50 in data set [1] is 5 µM.

In the case of `C=C(C)[C@H]1CC=C(C)[C@@]2(O)[C@@H]1[C@H](c1ccccc1Br)O[C@@H]2C(=O)OCC1CC1` [Compound 5a.ii], in [1], the IC50 was found to be 50 µM.

`C=C(C)[C@H]1CC=C(C)[C@@]2(O)[C@@H]1[C@H](c1ccccc1Br)O[C@@H]2C(=O)OCC1CCCC1` [Compound 5a.iii]: in data set [1], the IC50 was above 100 µM.

Regarding `C=C(C)[C@H]1CC=C(C)[C@@]2(O)[C@@H]1[C@H](c1ccccc1Br)O[C@@H]2C(=O)OCC` [Compound 5a], the IC50 in data set [1] was ~20 µM and 20 µM.

With `C=C(C)[C@H]1CC=C(C)[C@@]2(O)[C@@H]1[C@H](c1cccc(Br)c1)O[C@@H]2C(=O)OCC` [Compound 5b], in [1], the IC50 stood at 3 µM.

`C=C(C)[C@H]1CC=C(C)[C@@]2(O)[C@@H]1[C@H](c1cccc(Cl)c1Cl)O[C@@H]2C(=O)OCC` [Compound 5c]: in [1], the IC50 was 5 µM.

Turning to `C=C(C)[C@H]1CC=C(C)[C@@]2(O)[C@@H]1[C@H](c1ccc(Cl)cc1Cl)O[C@@H]2C(=O)OCC` [Compound 5d], the IC50 in data set [1] stood at 3 µM. Also, in the data set on 60-cell line screening, the “activity in single dose assays” value is recorded as “no significant activity”.

On to `C=C(C)[C@H]1CC=C(C)[C@@]2(O)[C@@H]1[C@H](c1cccc3ccccc13)O[C@@H]2C(=O)OC` [Compound 5e], for which, in data set [1] (KB-3 IC50, entry 8 vs. entry 18), the “fold more active than the corresponding diene 10e” value is “at least 10 fold”. Also, the IC50 in [1] was determined as 10 µM.

Consider `C=C(C)[C@H]1CC=C(C)[C@@]2(O)[C@@H]1[C@H](c1ccccn1)O[C@@H]2C(=O)OC` [Compound 5f], for which the IC50 in data set [1] (Homo sapiens, KB3) was 100 µM.

Consider `C=C(C)[C@H]1CC=C(C)[C@@]2(O)[C@@H]1[C@H](c1cccc[n+]1C)O[C@@H]2C(=O)OC` [Compound 5i], for which the IC50 in data set [1] (Homo sapiens, KB3) is above 100 µM.

As for `C=C(C)[C@H]1CC(=O)C(C)=C2[C@@H](C(=O)OCC)O[C@@H](c3ccccc3Br)[C@@H]21` [Compound 6a], the IC50 in [1] is ~70 µM and 70 µM.

As to `C=C(C)[C@H]1CC(=O)C(C)=C2[C@@H](C(=O)OCC)O[C@@H](c3cccc(Br)c3)[C@@H]21` [Compound 6b], the IC50 in data set [1] was 30 µM.

For the compound `C=C(C)[C@H]1CC(=O)C(C)=C2[C@@H](C(=O)OCC)O[C@@H](c3cccc(Cl)c3Cl)[C@@H]21` [Compound 6c], the IC50 in [1] turned out to be 5 µM.

Turning to `C=C(C)[C@H]1CC(=O)C(C)=C2[C@@H](C(=O)OCC)O[C@@H](c3ccc(Cl)cc3Cl)[C@@H]21` [Compound 6d], the IC50 in data set [1] amounted to 3 µM. Moreover, the “differential activity, single dose” value in [2] and in data set [3] was “significant differential activity” each time.

Turning to `C=C(C)[C@H]1CC=C(C)[C@@]2(O)[C@@H]1[C@H](c1ccccc1Br)O[C@@H]2C(=O)O` [Compound 9], the half-maximal inhibitory concentration (IC50) in [1] was above 100 µM.

Take `C=C(C)C1CC=C(C)C2=COC(c3ccccc3Br)C21` (centres unmarked) [Compound 10a]: the IC50 in data set [1] turned out to be 4 µM.

Turning to `C=C(C)C1CC=C(C)C2=COC(c3cccc4ccccc34)C21` (centres unmarked) [Compound 10e], the IC50 in [1] is above 100 µM.

In the case of `C=C(C)C1CC=C(C)C2=COC(c3ccco3)C21` (centres unmarked) [Compound 10g], the IC50 in data set [1] came out at 2 µM.

For `C=C(C)C1CC=C(C)C2=COC(c3ccccc3F)C21` (centres unmarked) [Compound 10h], the IC50 in data set [1] worked out at 1 µM. In addition, the “differential activity, single dose” value (in the data set with entire leukemia panel; in [4]) was “significant differential activity” each time. Further, the CC50 is 9.36 µM in data set [5] and 26.8 µM in [6].

As to `CO[C@]12C=C[C@](C)(O1)[C@@H](OC(=O)/C=C/c1cn(C)cn1)C[C@H]1C(C)=CC[C@H](C(C)C)[C@H]1/C=C\2CO[C@@H]1OC[C@@H](O)[C@@H](O)[C@@H]1OC(C)=O` [Eleutherobin], in data set [7], the anti-mitotic activity entry is given as “taxol-like anti-mitotic activity”.

As to `C=C1CC[C@H](C(C)C)[C@@H]2[C@H]1[C@H]1C[C@](C)(O)[C@@H](O)CC[C@@](C)(O)[C@@H]2O1` [Sclerophytin A], the IC50 in the data set with L1210 cell line (value in brackets, read-out: IC50, growth inhibitory activity against L1210) was 0.003 µM. Also, in the data set with L1210 cell line, the “IC50, growth inhibitory activity against L1210” value is 1.0 ng/mL (≈ 2.95 nM).

For the compound `COC(=O)/C1=C/[C@@H]2[C@@H](C(C)C)CC=C(C)[C@@H]2C[C@H](OC(=O)/C=C/c2cn(C)cn2)[C@]2(C)C=C[C@@]1(O)O2` [sarcodictyins A, sarcodictyin A], in data set [7], the anti-mitotic activity result was “taxol-like anti-mitotic activity”.

Turning to sarcodictyin B [sarcodictyins B], the anti-mitotic activity result in data set [7] is “taxol-like anti-mitotic activity”.
